Consider one substance from paper PMC9603901, “Therapeutic Potential of Antimicrobial Peptide PN5 against Multidrug-Resistant E. coli and Anti-Inflammatory Activity in a Septic Mouse Model” (Microbiology Spectrum, 2022).

What is called MIC is the lowest concentration that inhibits growth of the organism. A higher MIC goes with weaker potency.

Where no end group is shown, it is not given here.

In data set [1] the test system is P. aeruginosa ATCC 27853. It counts as cell-based, Pseudomonas aeruginosa. The note with it: microdilution, NB, 18 to 24 h, 37°C, three independent experiments. As to the method: (§1) Bacterial cells were cultured at 37°C in the appropriate culture media with shaking (180 rpm). Luria-Bertani broth (LB) (244620; BD Difco) was used for E. coli ATCC 25922, ASEC strains, and B. subtilis KCTC 2217. Nutrient broth (NB) (234000; BD Difco) was used for P. aeruginosa ATCC 27853, S. Typhimurium KCTC 1926, and A. baumannii KCTC 2508. Tryptic soy broth (TSB) (211825; BD Difco) was used for S. aureus ATCC 25923. Finally, brain heart infusion (BHI) (237500; BD Difco) was used for L. monocytogenes KCTC 3710. The antimicrobial activity of each peptide was determined using microdilution assays. To this end, 2-fold serial dilution series of each peptide (from 1 to 64 μM) were added to duplicate media with 10 mM sodium phosphate buffer (pH 7.4). Fifty microliters of the peptide and antibiotic solution was added to each well of a 96-well plate (32096, surface nontreatment; SPL Life Sciences). Then, 50 μL of 2 × 10^5 CFU mL^−1 of bacteria was added to each well, and the samples were incubated for 18 to 24 h without shaking at 37°C.

In data set [2] the test system is S. Typhimurium KCTC 1926. It counts as cell-based, Salmonella enterica serovar Typhimurium. The note with it: microdilution, NB, 18 to 24 h, 37°C, three independent experiments. On the procedure: as §1
(Broth dilution looks for growth in wells or tubes with falling amounts of substance.)

The test system of data set [3] is S. aureus ATCC 25923. Type of data set: cell-based, Staphylococcus aureus. The note with it: microdilution, TSB, 18 to 24 h, 37°C, three independent experiments. As to the method: as §1
Data set [4] deals with B. subtilis KCTC 2217. Type of data set: cell-based, Bacillus subtilis. The note with it: microdilution, LB, 18 to 24 h, 37°C, three independent experiments. On the procedure:
as §1

The subject of data set [5] is RAW 264.7 cells. The experiment in a line: IncuCyte Cytotox green time-dependent cytotoxicity. It counts as cell-based, mouse. The note with it: 200 μM, 24 h. On the procedure: An IncuCyte cytotoxicity assay (Essen BioScience, Inc., Ann Arbor, MI, USA) was performed to evaluate time-dependent cytotoxicity. RAW 264.7 cells (2 × 10^5 cells well^−1) were seeded into 96-well culture plates and then treated with peptides and IncuCyte Cytotox green reagent (Essen BioScience, Inc.). Up to 200 μM PN5 and 25 μM melittin were used to treat RAW 264.7 cells, with the concentrations serially diluted by half. […] The cells were stained with IncuCyte Cytotox green reagent. The viability was measured using IncuCyte software (Essen BioScience, Inc.) ([56]).

Data set [6] concerns the target T1, elastase (Homo sapiens, UniProt P08246).
T1 construct: purchased Sigma-Aldrich 324681
The experiment in a line: Resistance to proteolytic degradation, RP-HPLC. Type of data set: in vitro ADME. The note with it: 50 μg PN5, 10 μg mL^−1 elastase, 0.1 M Tris-HCl pH 8.0, 37°C, 0 to 540 min; RP-HPLC C18, 214 nm. On the procedure: The stability of PN5 in the presence of the enzyme was measured by treatment with elastase. First, 10 μg mL^−1 elastase in 0.1 M Tris-HCl (pH 8.0) was incubated with 50 μg PN5 at 37°C with shaking (180 rpm), with aliquots collected at 0, 30, 60, 120, 360, 540, and 720 min. After incubation, each sample was observed by RP-HPLC with a Jupiter C18 column (4.6 by 250 mm, 300 Å, 5 μm). E. coli 25922 and S. aureus 25923 were cultured in LB and TSB media with shaking (180 rpm) at 37°C, washed twice with 10 mM sodium phosphate buffer (pH 7.4), suspended in 10 mL LB and TSB media at 2 × 10^5 CFU mL^−1, mixed with 0.2% agarose, and dried for 1 h. Paper disks (6 mm) were placed on the dried agarose, and 50 μg PN5 aliquots was dropped onto the disks. The disks were stored in a 37°C incubator for 24 h. PN5- and elastase (10 μg mL^−1)-treated PN5 was prepared to evaluate the susceptibility to E. coli 25922 and S. aureus 25923. PN5 (6.25, 12.5, 25, 50, and 100 μg) was diluted in 10 mM sodium phosphate buffer (pH 7.4) and 10 μg mL^−1 elastase. E. coli 25922 and S. aureus 25923 were prepared at 2 × 10^5 CFU mL^−1. Peptides with 10 μg mL^−1 elastase and bacteria were incubated for 9 h with shaking (180 rpm) and observed using a visible spectrophotometer (Pharmacia Biotech, Uppsala, Sweden) ([60]).

The conditions of data set [7]: 200 μg/mL^−1; previous study; cited from earlier work. The source says:
In this study, we confirmed that PN5 has antimicrobial activities against Gram-negative and Gram-positive bacteria, including MDR E. coli. The ASEC strains that were clinically isolated from patients, mentioned in Table S3 in the supplemental material, produced ESBL, which induces resistance to β-lactam antibiotics, and New Delhi metallo-β-lactamase (NDM), which hydrolyzes a class of carbapenems. […] The four PN peptides (PN5, PN7, PN8, and PN10) purified from pine ne ...

T1 sequence (P08246 30-267): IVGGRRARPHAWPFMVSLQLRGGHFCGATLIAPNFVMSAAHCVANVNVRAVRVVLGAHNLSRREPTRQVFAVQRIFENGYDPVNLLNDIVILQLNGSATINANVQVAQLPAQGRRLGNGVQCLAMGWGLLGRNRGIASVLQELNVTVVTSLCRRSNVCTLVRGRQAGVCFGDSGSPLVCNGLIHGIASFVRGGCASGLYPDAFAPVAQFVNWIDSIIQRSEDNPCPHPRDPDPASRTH

For the substance FKFLARTGKFL-NH2 [PN5], the MIC in data set [1] was determined as 4 µM; in data set [2], 2 µM; in data set [3], 2 µM; in data set [4], 4 µM. Also, the “cytotoxicity, Cytotox green fluorescence” value in data set [5] is “no toxicity”. For the same substance, the “peak of residual peptide after incubation with elastase” value in data set [6] is “remained even after 9 h”. The cytotoxicity entry in data set [7] is “less than 20%”.
